Columns and labels:
[1] = system: HER2-positive SK-OV-3 human ovarian cancer xenograft; assay: Antitumor activity in SK-OV-3 xenograft model; format: in vivo, Female BALB/cAnN-nu (nude) mice; conditions: 50 mg/kg intravenous, four doses (day 0, 4, 8, 12), compared to vehicle control
Experimental: Female BALB/cAnN-nu (nude) mice (5-8 weeks old) are housed in the Laboratory Animal Unit, The University of Hong Kong. The mice are freely access to food and water. SKOV-3 ovarian cancer cells (1×10^7) in PBS (100 μL) are injected into the right flanks of each mouse subcutaneously. […] The mice are treated with intravenous administration of a total of four doses on day 0, 4, 8 and 12. The tumor size and body weight are monitored during the treatment. After 28 days, the mice are sacrificed and the tumor weight is measured.

[2] = system: SK-OV-3 ovarian cancer cell (HER2+); assay: In vitro anti-proliferative study (NBB staining, 6 days); format: cell-based, human; conditions: SK-OV-3 (HER2+), 6 days incubation, mean±SD
Experimental: (§1) Briefly, Different cell lines (1×10^3 cells/well) are seeded in a microtiter plate (96 well) and incubated overnight before the treatment. […] After the media is removed, the cells are fixed with formaldehyde (3%; 50 μL) in PBS and stained with NBB reagent (0.05%, 0.1 M sodium acetate, 9% acetic acid; 50 μL) for overnight. The stained cells in each well are washed thrice gently with deionized water and solubilized in sodium hydroxide solution (50 mM; 100 μL). The cell viability is determined by measuring the absorbance of 620 nm in each well by microplate reader. The experiments are repeated in triplicate. The IC50 values are presented as the mean±standard deviation.

[3] = system: SK-BR-3 breast cancer cell (HER2+); assay: as above; format: cell-based; conditions: SK-BR-3 (HER2+), 6 days incubation, mean±SD
Experimental: as §1

[4] = system: MCF-10A breast epithelial cell (HER2−); assay: as above; format: cell-based; conditions: MCF-10A (HER2−), 6 days incubation, mean±SD
Experimental: as §1

[5] = system: MDA-MB-231 breast cancer cell (HER2−); assay: as above; format: cell-based; conditions: MDA-MB-231 (HER2−), 6 days incubation, mean±SD
Experimental: as §1

For `COc1ccc(CCc2cc(OC)c(OC)c(OC)c2)cc1O` [Erianin, erianin], the tumor growth suppression [1] was “no effect”, the IC50 [2] was 21.4 ± 0.3 nM and the IC50 [3] was 24.1 ± 0.1 nM. For the same molecule, the IC50 [4] was 25.7 ± 0.2 nM and the IC50 [5] was 21.6 ± 0.2 nM.
